The target of the assay is T1, recombinant human NaV1.8 stably transfected HEK cells (Homo sapiens, UniProt Q9Y5Y9).
T1 construct: expressed in transfected cells; host or cells: HEK cells, stably transfected
Put plainly: Compound profiling on NaV1.8, human NaV1.8 cell line, SyncroPatch384PE automated patch clamp assay (Example 102, first set of compounds, Table 16). It is filed as cell-based. Conditions: human NaV1.8 HEK cells, Table 16 (first set of compounds). Summed up: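 IC50s come from two read-outs: resting-state block (P1, 10 mV step from −120 mV) and inactivated-state block (P2, after 10 s at −40 mV), scaled between DMSO and 250 μM tetracaine. Compounds (20–0.001 μM final, 1:3 steps) were applied for 5 min, 15 s sweeps. Cells kept at 30 °C the day before.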

Setting [1] is: inactivated state block (P2 measurement), read-out: P2IC50.
Where [2] appears, read: resting state block (P1 measurement), read-out: P1IC50.

IC50 data for 33 compounds are collected here from US20240336574A1 (LATIGO BIOTHERAPEUTICS, INC., priority 2021, published 2024).

Like-named read-outs stand apart in the source and are kept apart here.

T1 sequence (Q9Y5Y9 whole entry): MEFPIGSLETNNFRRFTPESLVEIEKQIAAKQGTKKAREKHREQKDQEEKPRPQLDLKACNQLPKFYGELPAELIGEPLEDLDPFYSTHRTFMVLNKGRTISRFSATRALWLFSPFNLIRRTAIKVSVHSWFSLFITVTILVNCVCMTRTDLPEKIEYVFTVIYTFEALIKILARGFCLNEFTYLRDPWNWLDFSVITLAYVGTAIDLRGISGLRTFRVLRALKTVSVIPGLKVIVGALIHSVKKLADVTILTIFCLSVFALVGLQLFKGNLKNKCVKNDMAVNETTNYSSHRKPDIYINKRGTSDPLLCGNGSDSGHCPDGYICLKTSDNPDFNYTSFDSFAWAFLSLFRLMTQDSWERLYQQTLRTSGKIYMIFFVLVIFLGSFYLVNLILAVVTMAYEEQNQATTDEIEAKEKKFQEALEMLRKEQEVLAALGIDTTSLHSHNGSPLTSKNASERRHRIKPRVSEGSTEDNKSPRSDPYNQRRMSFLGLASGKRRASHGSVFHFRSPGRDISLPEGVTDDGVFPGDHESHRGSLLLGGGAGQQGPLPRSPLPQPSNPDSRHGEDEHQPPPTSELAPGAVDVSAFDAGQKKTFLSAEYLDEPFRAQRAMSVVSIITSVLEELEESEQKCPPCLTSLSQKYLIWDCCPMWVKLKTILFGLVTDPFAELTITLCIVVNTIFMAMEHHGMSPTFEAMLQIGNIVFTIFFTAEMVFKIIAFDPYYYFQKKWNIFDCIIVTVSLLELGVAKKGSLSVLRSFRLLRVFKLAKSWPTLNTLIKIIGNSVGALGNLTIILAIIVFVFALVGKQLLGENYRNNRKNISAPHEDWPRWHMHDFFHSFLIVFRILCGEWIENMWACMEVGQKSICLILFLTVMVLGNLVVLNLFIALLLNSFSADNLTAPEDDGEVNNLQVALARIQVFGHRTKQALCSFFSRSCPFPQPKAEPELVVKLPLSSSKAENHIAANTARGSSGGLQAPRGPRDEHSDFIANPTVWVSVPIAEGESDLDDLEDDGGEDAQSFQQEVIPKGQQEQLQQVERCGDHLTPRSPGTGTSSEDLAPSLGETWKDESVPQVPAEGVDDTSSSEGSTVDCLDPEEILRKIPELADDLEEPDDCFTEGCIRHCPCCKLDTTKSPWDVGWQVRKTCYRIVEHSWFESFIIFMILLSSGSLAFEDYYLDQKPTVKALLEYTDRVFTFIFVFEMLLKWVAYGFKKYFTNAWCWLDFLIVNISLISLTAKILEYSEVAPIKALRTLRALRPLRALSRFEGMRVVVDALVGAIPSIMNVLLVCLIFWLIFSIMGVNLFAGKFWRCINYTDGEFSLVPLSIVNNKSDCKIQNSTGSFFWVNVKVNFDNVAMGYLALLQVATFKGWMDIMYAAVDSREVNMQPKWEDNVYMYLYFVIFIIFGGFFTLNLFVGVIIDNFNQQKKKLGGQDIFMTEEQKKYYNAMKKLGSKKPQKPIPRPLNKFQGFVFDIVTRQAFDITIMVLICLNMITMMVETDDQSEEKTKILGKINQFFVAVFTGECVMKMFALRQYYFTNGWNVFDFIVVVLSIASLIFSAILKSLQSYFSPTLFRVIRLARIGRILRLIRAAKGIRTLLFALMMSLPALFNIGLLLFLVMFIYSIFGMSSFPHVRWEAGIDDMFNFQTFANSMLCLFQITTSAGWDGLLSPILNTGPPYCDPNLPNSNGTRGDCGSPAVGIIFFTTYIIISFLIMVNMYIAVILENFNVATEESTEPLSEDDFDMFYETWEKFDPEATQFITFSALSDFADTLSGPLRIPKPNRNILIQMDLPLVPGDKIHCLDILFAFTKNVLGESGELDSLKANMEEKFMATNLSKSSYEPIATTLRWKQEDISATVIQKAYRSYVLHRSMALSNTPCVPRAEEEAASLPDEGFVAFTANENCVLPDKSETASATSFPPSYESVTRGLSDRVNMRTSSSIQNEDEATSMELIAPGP

In the case of `CS(=N)(=O)c1cccc(NC(=O)c2cc(C(F)(F)F)cnc2OC2CC3(C2)CC(F)(F)C3)c1` (centres unmarked) [Compound 1632], the IC50 is, setting by setting: under setting [1], 200 to 500 nM; under setting [2], 200 to 500 nM. Regarding `Cc1c(C(F)(F)F)nnc(Oc2ccc(OC(C)C)c(F)c2F)c1C(=O)Nc1ccnnc1` [Compound 1412], the IC50 reads like this: under setting [1], at most 20 nM; under setting [2], at most 20 nM.

Regarding `COc1c(Oc2nnc(C(F)(F)F)c(C)c2C(=O)Nc2cccc(S(C)(=N)=O)c2)ccc(F)c1F` (centres unmarked) [Compound 23], the IC50 runs as follows: under setting [1], 20 to 40 nM; under setting [2], at most 20 nM. Taken in the same sequence, the figures for `Cc1c(C(F)(F)F)nnc(Oc2ccc(Cl)cc2)c1C(=O)Nc1cccc(S(C)(=N)=O)c1` (centres unmarked) [Compound 22] were 40 to 200 nM and 20 to 40 nM. Taken in the same sequence, the figures for `COc1cc(C#N)ccc1Oc1nnc(-c2cnc(C)s2)c(C)c1C(=O)Nc1cccc(S(C)(=N)=O)c1` (centres unmarked) [Compound 1449, 3-(4-cyano-2-methoxy-phenoxy)-5-methyl-N-[3-(methylsulfonimidoyl)phenyl]-6-(2-methylthiazol-5-yl)pyridazine-4-carboxamide] were 200 to 500 nM and 200 to 500 nM. As for `COc1cc(C#N)ccc1Oc1nnc(C(F)(F)F)c(C)c1C(=O)Nc1cccc(C(=O)N2CC(O)C2)c1` [Compound 1437, 3-(4-cyano-2-methoxy-phenoxy)-N-[3-(3-hydroxyazetidine-1-carbonyl)phenyl]-5-methyl-6-(trifluoromethyl)pyridazine-4-carboxamide], the IC50 is, setting by setting: under setting [1], 40 to 200 nM; under setting [2], 40 to 200 nM.

Regarding `NC(=O)c1ccc(NC(=O)c2cc(C(F)(F)F)cnc2OC2CC3C(C2)C3(F)F)cc1` (centres unmarked) [Compound 1673], the IC50 under setting [1] was 200 to 500 nM and the IC50 under setting [2] lay within 200 to 500 nM. Take `Cc1c(C(F)(F)F)nnc(Oc2c(F)cc(OC(F)(F)F)cc2F)c1C(=O)Nc1cccc(S(C)(=N)=O)c1` (centres unmarked) [Compound 1514, 3-[2,6-difluoro-4-(trifluoromethoxy)phenoxy]-N-{3-[imino(methyl)oxo-λ^6-sulfanyl]phenyl}-5-methyl-6-(trifluoromethyl)pyridazine-4-carboxamide]: the IC50 by setting is: under setting [1], 40 to 200 nM; under setting [2], 40 to 200 nM. Regarding `Cc1cc(F)ccc1Oc1ncc(C#N)cc1C(=O)Nc1cccc(S(C)(=N)=O)c1` (centres unmarked) [Compound 1578], the IC50 reads like this: under setting [1], 200 to 500 nM; under setting [2], 200 to 500 nM. Consider `COc1ccc(Oc2nnc(C(F)(F)F)c(C)c2C(=O)Nc2cccc(S(C)(=O)=O)c2)c(C)n1` [Compound 1428], for which the IC50 runs as follows: under setting [1], 40 to 200 nM; under setting [2], 40 to 200 nM. Regarding `Cc1nc(OC2CCC2)ccc1Oc1nnc(C(F)(F)F)c(C)c1C(=O)Nc1cccc(S(C)(=N)=O)c1` (single isomer, unassigned) [Compound 1499, 3-((6-cyclobutoxy-2-methylpyridin-3-yl)oxy)-5-methyl-N-(3-(S-methylsulfonimidoyl)phenyl)-6-(trifluoromethyl)pyridazine-4-carboxamide], the IC50 by setting is: under setting [1], 40 to 200 nM; under setting [2], 40 to 200 nM. For `COc1c(Oc2ncc(C(F)(F)F)cc2C(=O)Nc2cccc(S(C)(=N)=O)c2)ccc(F)c1F` (centres unmarked) [Compound 1630], the IC50 under setting [1] is at most 20 nM and the IC50 under setting [2] is at most 20 nM. In the case of `COc1cc(C#N)ccc1Oc1nc(C(F)(F)F)nc(C)c1C(=O)Nc1cccc(C(N)=O)c1` [Compound 1742, N-(3-carbamoylphenyl)-4-(4-cyano-2-methoxy-phenoxy)-6-methyl-2-(trifluoromethyl)pyrimidine-5-carboxamide], the IC50 fell in the range of 20 to 40 nM under setting [1] and 40 to 200 nM under setting [2]. For the compound `CNCC(=O)N=[S@](C)(=O)c1cccc(NC(=O)c2cc(C(F)(F)F)cnc2Oc2ccc(F)cc2C)c1` [Compound 1720, (R)-2-(4-fluoro-2-methylphenoxy)-N-(3-(S-methyl-N-(methylglycyl)sulfonimidoyl)phenyl)-5-(trifluoromethyl)nicotinamide], the IC50 is, setting by setting: under setting [1], at most 20 nM; under setting [2], at most 20 nM.

Take `COc1cc(C#N)ccc1Oc1nnc(C(F)(F)F)c(C)c1C(=O)Nc1cccc([S@@](C)(=N)=O)c1` (single isomer, unassigned) [Compound 1479]: the IC50 is at most 20 nM under setting [1] and at most 20 nM under setting [2]. With `Cc1c(C(F)(F)F)nnc(Oc2ccc(Cl)cc2F)c1C(=O)Nc1cccc(S(C)(=N)=O)c1` (single isomer, unassigned) [Compound 1472, 3-(4-chloro-2-fluoro-phenoxy)-5-methyl-N-[3-(methylsulfonimidoyl)phenyl]-6-(trifluoromethyl)pyridazine-4-carboxamide], under setting [2], the IC50 was at most 20 nM. `Cc1cc(F)ccc1Oc1nnc(C(F)(F)F)c(C)c1C(=O)Nc1cccc(S(C)(=N)=O)c1` (centres unmarked) [Compound 20, 3-(4-Fluoro-2-methylphenoxy)-5-methyl-N-(3-(S-methylsulfonimidoyl)phenyl)-6-(trifluoromethyl)pyridazine-4-carboxamide]: the IC50 under setting [1] lay within 20 to 40 nM and the IC50 under setting [2] is at most 20 nM. Taken in the same sequence, the figures for `Cc1cc(F)ccc1Oc1nnc(C2CC2)c(C)c1C(=O)Nc1cccc(S(C)(=N)=O)c1` (centres unmarked) [Compound 1433, 6-cyclopropyl-3-(4-fluoro-2-methyl-phenoxy)-5-methyl-N-[3-(methylsulfonimidoyl)phenyl]pyridazine-4-carboxamide] were 40 to 200 nM and 40 to 200 nM. Regarding `CS(=O)(=O)c1cccc(NC(=O)c2cc(C(F)(F)F)cnc2Oc2cccc(S(C)(=O)=O)c2)c1` [Compound 1718, 2-(3-methylsulfonylphenoxy)-N-(3-methylsulfonylphenyl)-5-(trifluoromethyl)pyridine-3-carboxamide], the IC50 under setting [1] lay within 200 to 500 nM and the IC50 under setting [2] lay within 200 to 500 nM. Take `CC(C)Oc1ccc(Oc2ncc(C(F)(F)F)cc2C(=O)Nc2ccc(C(N)=O)cc2)c(F)c1` [Compound 1710]: the IC50 under setting [1] was in the range of 200 to 500 nM and the IC50 under setting [2] lay within 200 to 500 nM. Consider `CS(=O)(=O)c1cccc(NC(=O)c2cc(C(F)(F)F)cnc2OCC2CCC2(F)F)c1` (centres unmarked) [Compound 1605], for which the IC50 under setting [1] was 200 to 500 nM and the IC50 under setting [2] fell in the range of 200 to 500 nM.

Consider `Cc1c(C(F)(F)F)nnc(Oc2ccc(OC3CCC3)c(F)c2F)c1C(=O)Nc1cccc(S(C)(=O)=O)c1` [Compound 1426], for which the IC50 by setting is: under setting [1], at most 20 nM; under setting [2], at most 20 nM. Consider `COc1cc(C#N)ccc1Oc1nnc(-c2cncn2C)c(C)c1C(=O)Nc1cccc(S(C)(=N)=O)c1` (centres unmarked) [Compound 1447, 3-(4-cyano-2-methoxy-phenoxy)-5-methyl-6-(3-methylimidazol-4-yl)-N-[3-(methylsulfonimidoyl)phenyl]pyridazine-4-carboxamide], for which the IC50 runs as follows: under setting [1], 20 to 40 nM; under setting [2], 20 to 40 nM. With `Cc1nc(OC2CCC2)ccc1Oc1nnc(C(F)(F)F)c(C)c1C(=O)Nc1cccc(S(C)(=N)=O)c1` (centres unmarked) [Compound 1498, 3-[(6-cyclobutoxy-2-methylpyridin-3-yl)oxy]-N-{3-[imino(methyl)oxo-λ^6-sulfanyl]phenyl}-5-methyl-6-(trifluoromethyl)pyridazine-4-carboxamide], the IC50 reads like this: under setting [1], 40 to 200 nM; under setting [2], 40 to 200 nM. Consider `Cc1cc(F)ccc1COc1ncc(C(F)(F)F)cc1C(=O)Nc1cccc(S(C)(=O)=O)c1` [Compound 1596], for which the IC50 fell in the range of 200 to 500 nM under setting [1] and 200 to 500 nM under setting [2].

Consider `Cc1c(C(F)(F)F)nnc(Oc2ccc(OC3CCC3)c(F)c2F)c1C(=O)Nc1cccc(S(C)(=N)=O)c1` (single isomer, unassigned) [Compound 1493, 3-(4-cyclobutoxy-2,3-difluorophenoxy)-N-{3-[imino(methyl)oxo-λ^6-sulfanyl]phenyl}-5-methyl-6-(trifluoromethyl)pyridazine-4-carboxamide], for which the IC50 under setting [1] is at most 20 nM and the IC50 under setting [2] was at most 20 nM. On to `CCOc1ncc(C(F)(F)F)cc1C(=O)Nc1cccc(S(C)(=O)=O)c1` [Compound 1600], for which the IC50 is, setting by setting: under setting [1], 200 to 500 nM; under setting [2], 200 to 500 nM. In the case of `COc1c(Oc2ncc(Br)cc2C(=O)Nc2ccnnc2)ccc(F)c1F` [Compound 1683], the IC50 under setting [1] was at most 20 nM and the IC50 under setting [2] was 20 to 40 nM. As for `Cc1c(Oc2ncc(C(F)(F)F)cc2C(=O)Nc2cccc(S(C)(=N)=O)c2)ccc(OC(F)(F)F)c1F` (single isomer, unassigned) [Compound 1714], the IC50 is at most 20 nM under setting [1] and at most 20 nM under setting [2].

`NC(=O)c1ccc(NC(=O)c2cc(C(F)(F)F)cnc2Oc2ccc(C(F)F)nc2)cc1` [Compound 1676]: the IC50 by setting is: under setting [1], 200 to 500 nM; under setting [2], 200 to 500 nM. As to `Cc1c(C(F)(F)F)nnc(Oc2ccc(OC(F)(F)F)c(F)c2F)c1C(=O)Nc1cccc(S(C)(=N)=O)c1` (single isomer, unassigned) [Compound 1477, 3-[2,3-difluoro-4-(trifluoromethoxy)phenoxy]-5-methyl-N-[3-(methylsulfonimidoyl)phenyl]-6-(trifluoromethyl)pyridazine-4-carboxamide], the IC50 runs as follows: under setting [1], at most 20 nM; under setting [2], at most 20 nM. Consider `COc1cc(C#N)ccc1Oc1ncc(C(F)(F)F)cc1C(=O)Nc1cccc(S(C)(=N)=O)c1` (centres unmarked) [Compound 1562, 2-(4-cyano-2-methoxyphenoxy)-N-{3-[imino(methyl)oxo-λ^6-sulfanyl]phenyl}-5-(trifluoromethyl)pyridine-3-carboxamide], for which the IC50 runs as follows: under setting [1], at most 20 nM; under setting [2], at most 20 nM. As for `CS(=N)(=O)c1cccc(NC(=O)c2cc(C(F)(F)F)cnc2Oc2ccc(C(F)(F)F)cc2)c1` (centres unmarked) [Compound 1564, N-[3-(methylsulfonimidoyl)phenyl]-5-(trifluoromethyl)-2-[4-(trifluoromethyl)phenoxy]pyridine-3-carboxamide], the IC50 runs as follows: under setting [1], 40 to 200 nM; under setting [2], 20 to 40 nM.
